Laboratory results as given in patent US12643905B2, “Spiropyrrolidine derived antiviral agents” (priority 2021, dated 2026).
Like-named read-outs stand apart in the source and are kept apart here.

Legend:
[1] = test system: 229E human corona virus (hCoV); experiment: 229E live virus assay (CPE, ATPlite readout in MRC-5 cells); assay type: cell-based, hCoV-229E; details: Human coronavirus 229E, MRC5, 144 h, MOI 0.05, 6 days at 34° C., run in duplicate
SARS-CoV-2 3CL-protease = SARS-CoV-2 3CL-protease (Severe acute respiratory syndrome coronavirus 2, UniProt P0DTD1); experiment: SARS-CoV-2 3C-like (3CL) protease fluorescence assay (FRET); assay type: biochemical; details: 30 min preincubation, run in duplicate
[2] = recombinant SARS-CoV-2 3CL-protease 10 nM, read-out: FRET IC50

| SMILES | IC50 (SARS-CoV-2 3CL-protease; [2]) | other results |
| --- | --- | --- |
| CC(C)C[C@@H](C(=O)N1C[C@]2(C[C@H]1C#N)C(=O)Nc1ccccc12)N(C)C(=O)C(=O)Nc1ccc(F)cc1F [Example 1] |  | EC50 [1]: < 100 nM |
| CC(C)(C)C[C@H](NC(=O)C(=O)NC1CCC1)C(=O)N1C[C@]2(C[C@H]1C#N)C(=O)Nc1ccccc12 [Example 87] |  | EC50 [1]: < 100 nM |
| CC(C)(C)C[C@H](NC(=O)C(=O)NC(C)(C)C)C(=O)N1C[C@]2(C[C@H]1C#N)C(=O)Nc1ccccc12 [Example 95] |  | EC50 [1]: < 100 nM |
| CC(C)(C)C[C@H](NC(=O)C(=O)Nc1ccccc1)C(=O)N1C[C@]2(C[C@H]1C#N)C(=O)Nc1ccccc12 [Example 104] |  | EC50 [1]: < 100 nM |
| CC(C)(C)C[C@H](NC(=O)C(=O)Nc1cnccc1C(F)(F)F)C(=O)N1C[C@]2(C[C@H]1C#N)C(=O)Nc1ccccc12 [Example 156] | < 100 nM |  |
| CC(C)(C)C[C@H](NC(=O)C(=O)Nc1cncc(C(F)(F)F)c1)C(=O)N1C[C@]2(C[C@H]1C#N)C(=O)Nc1ccccc12 [Example 157] | < 100 nM |  |
| CC(C)(C)C[C@H](NC(=O)C(=O)Nc1ccc(C(F)(F)F)nc1)C(=O)N1C[C@]2(C[C@H]1C#N)C(=O)Nc1ccccc12 [Example 158] | < 100 nM |  |
| CC(C)(C)C[C@H](NC(=O)C(=O)Nc1cccnc1C(F)(F)F)C(=O)N1C[C@]2(C[C@H]1C#N)C(=O)Nc1ccccc12 [Example 162] | < 100 nM |  |
| Cc1cccc(NC(=O)C(=O)N[C@@H](CC(C)(C)C)C(=O)N2C[C@]3(C[C@H]2C#N)C(=O)Nc2ccccc23)n1 [Example 163] | < 100 nM |  |
| CC(C)(C)C[C@H](NC(=O)C(=O)NC1(C)CCC1)C(=O)N1C[C@]2(C[C@H]1C#N)C(=O)Nc1ccccc12 [Example 164] | < 100 nM |  |
| CC(C)(C)C[C@H](NC(=O)C(=O)N[C@@H]1CC2CC[C@H](C2)C1)C(=O)N1C[C@]2(C[C@H]1C#N)C(=O)Nc1ccccc12 [Example 165] | < 100 nM |  |
| CC(C)(C)C[C@H](NC(=O)C(=O)Nc1ccc(C(F)(F)F)cc1C(F)(F)F)C(=O)N1C[C@]2(C[C@H]1C#N)C(=O)Nc1ccccc12 [Example 166] | < 100 nM |  |
| N#C[C@@H]1C[C@@]2(CN1C(=O)[C@H](CC1CC1)NC(=O)C(=O)Nc1ncccc1C(F)(F)F)C(=O)Nc1ccccc12 [Example 167] | < 100 nM |  |
| N#C[C@@H]1C[C@@]2(CN1C(=O)[C@H](CC1CC1)NC(=O)C(=O)Nc1cc(C(F)(F)F)ccn1)C(=O)Nc1ccccc12 [Example 168] | < 100 nM |  |
| N#C[C@@H]1C[C@@]2(CN1C(=O)[C@H](CC1CC1)NC(=O)C(=O)Nc1ccc(C(F)(F)F)cn1)C(=O)Nc1ccccc12 [Example 169] | < 100 nM |  |
| N#C[C@@H]1C[C@@]2(CN1C(=O)[C@H](CC1CC1)NC(=O)C(=O)Nc1cccc(C(F)(F)F)n1)C(=O)Nc1ccccc12 [Example 170] | < 100 nM |  |
| N#C[C@@H]1C[C@@]2(CN1C(=O)[C@H](CC1CC1)NC(=O)C(=O)Nc1ccncc1C(F)(F)F)C(=O)Nc1ccccc12 [Example 171] | < 100 nM |  |
| N#C[C@@H]1C[C@@]2(CN1C(=O)[C@H](CC1CC1)NC(=O)C(=O)Nc1cnccc1C(F)(F)F)C(=O)Nc1ccccc12 [Example 172] | < 100 nM |  |
| N#C[C@@H]1C[C@@]2(CN1C(=O)[C@H](CC1CC1)NC(=O)C(=O)Nc1cncc(C(F)(F)F)c1)C(=O)Nc1ccccc12 [Example 173] | < 100 nM |  |
| N#C[C@@H]1C[C@@]2(CN1C(=O)[C@H](CC1CC1)NC(=O)C(=O)Nc1ccc(C(F)(F)F)nc1)C(=O)Nc1ccccc12 [Example 174] | < 100 nM |  |
| N#C[C@@H]1C[C@@]2(CN1C(=O)[C@H](CC1CC1)NC(=O)C(=O)Nc1cccnc1C(F)(F)F)C(=O)Nc1ccccc12 [Example 175] | < 100 nM |  |
| N#C[C@@H]1C[C@@]2(CN1C(=O)[C@H](CC1CC1)NC(=O)C(=O)Nc1ccnc(C(F)(F)F)c1)C(=O)Nc1ccccc12 [Example 176] | < 100 nM |  |

| SMILES | IC50 (SARS-CoV-2 3CL-protease; [2]) | other results |
| --- | --- | --- |
| CC(C)(C)C[C@H](NC(=O)C(=O)Nc1ccncc1C(F)(F)F)C(=O)N1C[C@]2(C[C@H]1C#N)C(=O)Nc1ccccc12 [Example 177] | < 100 nM |  |
| CC(C)(C)C[C@H](NC(=O)C(=O)C1CC1)C(=O)N1C[C@]2(C[C@H]1C#N)C(=O)Nc1ccccc12 [Example 178] | 100 to 1000 nM |  |
| CC(C)(C)C[C@H](NC(=O)C(=O)OC(C)(C)C)C(=O)N1C[C@]2(C[C@H]1C#N)C(=O)Nc1ccccc12 [Example 188] | 100 to 1000 nM |  |
| CC(C)(C)C[C@H](NC(=O)C(=O)OCc1ccccc1)C(=O)N1C[C@]2(C[C@H]1C#N)C(=O)Nc1ccccc12 [Example 189] | > 1000 nM |  |
| N#C[C@@H]1C[C@@]2(CN1C(=O)[C@H](CC1CC1)NC(=O)C(=O)Nc1c(Cl)cccc1C(F)(F)F)C(=O)Nc1ccccc12 [Example 194] | < 100 nM |  |
| CC(C)(C)C[C@H](NC(=O)C(=O)Nc1ccccc1C(F)(F)F)C(=O)N1C[C@]2(C[C@H]1C#N)C(=O)Nc1ccccc12 [Example 195] | < 100 nM |  |
| CC(C)(C)C[C@H](NC(=O)C(=O)Nc1c(F)cccc1C(F)(F)F)C(=O)N1C[C@]2(C[C@H]1C#N)C(=O)Nc1ccccc12 [Example 196] | < 100 nM |  |
| CC(C)(C)C[C@H](NC(=O)C(=O)Nc1c(Cl)cccc1C(F)(F)F)C(=O)N1C[C@]2(C[C@H]1C#N)C(=O)Nc1ccccc12 [Example 197] | < 100 nM |  |
| CN(C(=O)C(=O)Nc1ccc(C(F)(F)F)cc1C(F)(F)F)[C@@H](CC1CC1)C(=O)N1C[C@]2(C[C@H]1C#N)C(=O)Nc1ccccc12 [Example 198] |  | IC50 (SARS-CoV-2 3CL-protease; FRET IC50, recombinant SARS-CoV-2 3CL-protease 10 nM): < 100 nM |
| N#C[C@@H]1C[C@@]2(CN1C(=O)[C@H](CC1CC1)NC(=O)C(=O)Nc1ccc(C(F)(F)F)cc1C(F)(F)F)C(=O)Nc1ccccc12 [Example 199] | < 100 nM |  |
| N#C[C@@H]1C[C@@]2(CN1C(=O)[C@H](CC1CC1)NC(=O)C(=O)Nc1c(F)cccc1C(F)(F)F)C(=O)Nc1ccccc12 [Example 200] | < 100 nM |  |
| Cc1cccc(C)c1NC(=O)C(=O)N[C@@H](CC(C)C)C(=O)N1C[C@]2(C[C@H]1C#N)C(=O)Nc1ccccc12 [Example 201] | < 100 nM |  |
| CCCC[C@H](NC(=O)C(=O)Nc1c(C)cccc1C)C(=O)N1C[C@]2(C[C@H]1C#N)C(=O)Nc1ccccc12 [Example 202] | < 100 nM |  |
| Cc1cccc(C)c1NC(=O)C(=O)N[C@@H](Cc1ccccc1)C(=O)N1C[C@]2(C[C@H]1C#N)C(=O)Nc1ccccc12 [Example 203] | < 100 nM |  |
| CC(C)(C)C[C@H](NC(=O)C(=O)Nc1c(Cl)cc(F)cc1Cl)C(=O)N1C[C@]2(C[C@H]1C#N)C(=O)Nc1ccccc12 [Example 204] | < 100 nM |  |
| N#C[C@@H]1C[C@@]2(CN1C(=O)[C@H](CC1CC1)NC(=O)C(=O)Nc1c(Cl)cc(Cl)cc1C(F)(F)F)C(=O)Nc1ccccc12 [Example 205] | < 100 nM |  |
| N#C[C@@H]1C[C@@]2(CN1C(=O)[C@H](CC1CC1)NC(=O)C(=O)Nc1c(C(F)(F)F)cncc1C(F)(F)F)C(=O)Nc1ccccc12 [Example 206] | < 100 nM |  |
| CC(C)(C)C[C@H](NC(=O)C(=O)Nc1c(C(F)(F)F)cncc1C(F)(F)F)C(=O)N1C[C@]2(C[C@H]1C#N)C(=O)Nc1ccccc12 [Example 207] | < 100 nM |  |
| N#C[C@@H]1C[C@@]2(CN1C(=O)[C@H](CC1CC1)NC(=O)C(=O)Nc1c(C(F)(F)F)cccc1C(F)(F)F)C(=O)Nc1ccccc12 [Example 208] | < 100 nM |  |
| N#C[C@@H]1C[C@@]2(CN1C(=O)[C@H](CC1CC1)NC(=O)C(=O)Nc1c(Cl)cc(F)cc1C(F)(F)F)C(=O)Nc1ccccc12 [Example 209] | < 100 nM |  |
| CC(C)(C)C[C@H](NC(=O)C(=O)Nc1c(C(F)(F)F)ccc(Cl)c1Cl)C(=O)N1C[C@]2(C[C@H]1C#N)C(=O)Nc1ccccc12 [Example 210] | < 100 nM |  |
